Test: Induction of PHB2-mediated melanogenesis in mouse Melan-a cells assessed as pigmentation after 72 hrs

EC50: 2.5 µM
SMILES: NCCOCCOCCNc1nc(NCc2cccc(F)c2)nc(Oc2c(F)c(F)c(F)c(F)c2F)n1
